Experimental data: publication PMC3260273, “Allosteric Antagonism of Insect Odorant Receptor Ion Channels” (PLoS ONE, 2012)
pIC50: −log10 of the molar value. Each block holds one compound with its values, some of them ahead of it.

Columns and labels:
HsOrco = target: T1, HsOrco (Harpegnathos saltator, UniProt E2BJ30); experiment: whole-cell patch clamp, HEK cells, […] antagonist against […] VUAA1; type: cell-based
T1 construct: gene Orco
T1 sequence (E2BJ30 1-479): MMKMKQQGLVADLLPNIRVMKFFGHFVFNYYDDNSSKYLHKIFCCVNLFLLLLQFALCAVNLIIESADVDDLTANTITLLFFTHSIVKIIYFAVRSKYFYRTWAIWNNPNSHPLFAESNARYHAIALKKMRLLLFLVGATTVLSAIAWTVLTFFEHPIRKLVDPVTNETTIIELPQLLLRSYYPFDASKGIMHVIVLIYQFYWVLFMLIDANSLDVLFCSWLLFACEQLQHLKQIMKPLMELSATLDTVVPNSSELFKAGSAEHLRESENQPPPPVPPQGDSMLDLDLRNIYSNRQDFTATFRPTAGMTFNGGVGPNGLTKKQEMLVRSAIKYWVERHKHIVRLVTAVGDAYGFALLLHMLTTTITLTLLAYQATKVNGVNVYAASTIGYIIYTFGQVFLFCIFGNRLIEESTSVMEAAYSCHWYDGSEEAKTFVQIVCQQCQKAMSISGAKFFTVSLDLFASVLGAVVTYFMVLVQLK

AgOrco [1] = target: T2, AgOrco (Anopheles gambiae, UniProt Q7QCC7); experiment: calcium mobilization in AgOrco-only HEK cells against VUAA1; whole-cell patch clamp; type: cell-based
T2 construct: gene Orco
T2 sequence (Q7QCC7 1-478): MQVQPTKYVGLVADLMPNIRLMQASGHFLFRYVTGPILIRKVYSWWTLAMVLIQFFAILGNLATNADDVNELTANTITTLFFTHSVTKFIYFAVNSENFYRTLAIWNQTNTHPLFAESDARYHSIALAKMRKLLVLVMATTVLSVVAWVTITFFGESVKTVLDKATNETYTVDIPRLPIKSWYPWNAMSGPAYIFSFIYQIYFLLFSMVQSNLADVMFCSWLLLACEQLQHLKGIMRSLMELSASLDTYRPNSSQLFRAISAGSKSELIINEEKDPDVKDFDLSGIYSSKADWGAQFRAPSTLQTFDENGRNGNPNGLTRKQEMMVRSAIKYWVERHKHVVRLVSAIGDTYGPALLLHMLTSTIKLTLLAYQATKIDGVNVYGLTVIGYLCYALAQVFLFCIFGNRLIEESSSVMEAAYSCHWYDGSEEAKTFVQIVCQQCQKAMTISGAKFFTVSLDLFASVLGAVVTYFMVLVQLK

AgOrco [2] = target: T2, AgOrco; experiment: calcium mobilization in AgOrco-only HEK cells against VUAA1; type: cell-based
TRPV1 = TRPV1 (Rattus norvegicus, UniProt O35433); experiment: whole-cell patch clamp in HEK cells, […] capsaicin; type: cell-based
Sequence of TRPV1 (O35433 whole entry): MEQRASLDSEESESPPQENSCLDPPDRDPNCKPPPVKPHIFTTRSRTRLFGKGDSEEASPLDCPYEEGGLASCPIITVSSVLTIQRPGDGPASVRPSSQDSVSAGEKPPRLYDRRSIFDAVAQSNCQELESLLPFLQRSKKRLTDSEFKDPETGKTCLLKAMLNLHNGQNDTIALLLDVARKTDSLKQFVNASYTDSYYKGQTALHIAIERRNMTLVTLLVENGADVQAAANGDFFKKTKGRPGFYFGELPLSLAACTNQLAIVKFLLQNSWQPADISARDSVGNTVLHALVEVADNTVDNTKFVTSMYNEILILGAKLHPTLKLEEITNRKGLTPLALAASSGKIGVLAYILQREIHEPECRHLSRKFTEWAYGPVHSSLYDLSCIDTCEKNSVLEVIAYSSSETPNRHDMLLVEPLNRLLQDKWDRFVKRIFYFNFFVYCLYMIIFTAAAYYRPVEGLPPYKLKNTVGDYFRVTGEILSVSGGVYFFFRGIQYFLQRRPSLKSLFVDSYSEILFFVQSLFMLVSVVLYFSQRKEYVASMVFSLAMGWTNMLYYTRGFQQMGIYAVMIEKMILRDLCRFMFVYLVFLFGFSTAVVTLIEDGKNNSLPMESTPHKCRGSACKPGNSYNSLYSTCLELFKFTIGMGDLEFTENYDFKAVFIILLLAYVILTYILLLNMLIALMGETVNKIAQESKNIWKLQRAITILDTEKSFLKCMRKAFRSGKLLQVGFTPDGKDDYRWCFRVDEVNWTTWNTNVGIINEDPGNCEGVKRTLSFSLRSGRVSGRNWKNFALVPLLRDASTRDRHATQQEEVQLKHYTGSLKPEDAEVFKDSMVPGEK

AgOr65 = tested on: T3, AgOr65; experiment: calcium mobilization concentration response in AgOrco+AgOr65 HEK cells; patch clamp; type: cell-based, Anopheles gambiae
T3 construct: gene Or65; with AgOrco

% (HsOrco): 63.9±2.2% | pIC50 (AgOrco [1]): 4.90
Structure (SMILES): CCn1c(SCC(=O)N2c3ccccc3Sc3ccccc32)nnc1-c1ccco1 [VU0183254, 10-({[4-ethyl-5-(2-furyl)-4H-1,2,4-triazol-3-yl]thio}acetyl)-10H-phenothiazine]

pIC50 (AgOrco [2]): 2.80
Structure (SMILES): CCn1c(SCC(=O)Nc2ccc(Br)cc2C)nnc1-c1cccnc1 [VU0450667, N-(4-bromo-2-methylphenyl)-2-((4-ethyl-5-(pyridin-3-yl)-4H-1,2,4-triazol-3-yl)thio)acetamide]

Structure (SMILES): COc1cc(CNC(=O)CCCC/C=C/C(C)C)ccc1O [capsaicin]
whole-cell patch clamp in HEK cells, 10 μM capsaicin (TRPV1): VU0183254 did not affect the macroscopic currents induced by the natural TRPV1 ligand capsaicin

EC50 (AgOr65): −6.69+/−.03 log M
Structure (SMILES): C=CCc1ccc(O)c(OC)c1 [eugenol]
